Measured values taken from paper PMC12504763, “Antiproliferation, 3D-multicellular spheroid and VEGFR-2 inhibitory properties of spiroindolin-2-ones with phosphonate function” (Scientific Reports, 2025).
Read-outs that look alike come from different tables or passages of the source.

Assays:
[1] = tested on: RPE1 (normal human immortalized retinal pigment epithelial cell line); assay: cells; assay type: cell-based; settings: for IC50: Homo sapiens, RPE-1, MTT, normal RPE1 cell, read-out: IC50, μM ± SEM RPE1; for selectivity index (SI): IC50 against RPE1 compared to the tested cancer cell line(s), in words
VEGFR-2 [2] = target: T1, VEGFR-2 (Homo sapiens, UniProt P35968); assay: cell-based; assay type: cell-based; settings: for inhibition at 10 µM: PaCa-2, PaCa2; for VEGFR-2 pg/mL ± SEM PaCa2: at 10 μM, control 326.80 ± 1.9
T1 construct: endogenous in cells; host or cells: HCT116, PaCa2, MCF7 (human cancer cell lines, ATCC origin)
T1 sequence (P35968 20-1356): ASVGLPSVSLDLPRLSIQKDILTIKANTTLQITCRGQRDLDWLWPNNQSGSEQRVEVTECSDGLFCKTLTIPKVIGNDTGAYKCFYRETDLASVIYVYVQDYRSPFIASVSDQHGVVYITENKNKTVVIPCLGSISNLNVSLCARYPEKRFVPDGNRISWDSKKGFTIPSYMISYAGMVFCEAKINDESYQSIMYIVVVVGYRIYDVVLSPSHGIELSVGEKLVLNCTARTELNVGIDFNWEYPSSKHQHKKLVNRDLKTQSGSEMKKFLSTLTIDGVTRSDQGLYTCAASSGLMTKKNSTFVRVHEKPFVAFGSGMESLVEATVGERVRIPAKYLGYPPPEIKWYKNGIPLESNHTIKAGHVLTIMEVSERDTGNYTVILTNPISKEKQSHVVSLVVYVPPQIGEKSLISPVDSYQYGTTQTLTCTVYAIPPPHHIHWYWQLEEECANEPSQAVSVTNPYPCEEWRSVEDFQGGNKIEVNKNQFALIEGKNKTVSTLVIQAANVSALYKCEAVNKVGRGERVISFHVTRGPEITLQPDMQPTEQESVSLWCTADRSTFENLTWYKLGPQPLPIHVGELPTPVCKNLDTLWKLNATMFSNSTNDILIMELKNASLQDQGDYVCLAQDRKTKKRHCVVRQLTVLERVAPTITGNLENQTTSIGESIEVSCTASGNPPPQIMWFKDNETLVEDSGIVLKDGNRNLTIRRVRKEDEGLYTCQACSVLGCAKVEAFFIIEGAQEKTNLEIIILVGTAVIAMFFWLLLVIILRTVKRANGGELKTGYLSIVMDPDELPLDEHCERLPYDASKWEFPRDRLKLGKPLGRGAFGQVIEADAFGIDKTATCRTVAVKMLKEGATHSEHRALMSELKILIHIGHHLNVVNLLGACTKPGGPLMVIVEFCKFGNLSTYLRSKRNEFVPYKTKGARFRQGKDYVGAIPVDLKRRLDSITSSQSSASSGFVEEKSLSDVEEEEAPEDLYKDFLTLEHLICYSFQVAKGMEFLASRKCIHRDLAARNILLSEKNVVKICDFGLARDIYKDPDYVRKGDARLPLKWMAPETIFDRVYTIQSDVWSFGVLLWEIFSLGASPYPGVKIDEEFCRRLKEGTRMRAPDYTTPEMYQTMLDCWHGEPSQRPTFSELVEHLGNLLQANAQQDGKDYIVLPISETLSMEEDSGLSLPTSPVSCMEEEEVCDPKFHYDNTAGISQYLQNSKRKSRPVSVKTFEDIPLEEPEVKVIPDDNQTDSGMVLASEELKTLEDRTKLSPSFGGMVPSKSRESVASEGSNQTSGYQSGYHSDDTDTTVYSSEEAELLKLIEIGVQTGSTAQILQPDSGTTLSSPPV

COX-1 = target: T2, COX-1 (Ovis aries, UniProt P05979); assay: biochemical; settings: 3 replicates, read-out: % Inhibition of COX-1 ± SEM
T2 construct: purchased BioVision incorporated USA K548–100
T2 sequence (P05979 25-600): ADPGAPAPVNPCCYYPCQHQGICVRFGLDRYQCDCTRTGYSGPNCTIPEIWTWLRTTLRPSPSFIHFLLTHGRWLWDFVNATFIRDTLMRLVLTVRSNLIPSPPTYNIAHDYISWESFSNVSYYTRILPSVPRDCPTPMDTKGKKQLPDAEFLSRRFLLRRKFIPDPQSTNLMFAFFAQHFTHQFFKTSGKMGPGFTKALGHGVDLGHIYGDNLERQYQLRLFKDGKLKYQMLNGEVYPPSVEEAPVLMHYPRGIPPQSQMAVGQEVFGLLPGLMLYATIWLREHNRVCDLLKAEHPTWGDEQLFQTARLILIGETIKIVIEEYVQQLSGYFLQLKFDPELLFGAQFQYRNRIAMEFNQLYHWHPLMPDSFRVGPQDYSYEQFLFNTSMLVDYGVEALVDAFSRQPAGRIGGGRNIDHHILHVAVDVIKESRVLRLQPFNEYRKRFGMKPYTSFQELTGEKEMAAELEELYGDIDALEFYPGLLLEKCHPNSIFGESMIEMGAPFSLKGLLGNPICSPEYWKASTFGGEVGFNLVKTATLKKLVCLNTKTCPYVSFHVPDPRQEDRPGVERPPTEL

[3] = tested on: MCF7 (breast) cancer cell line; assay: 2D-monolayer antiproliferation (MTT) against MCF7; assay type: cell-based, human; settings: for IC50: Homo sapiens, MTT, 72 h incubation, MCF7 breast, read-out: IC50, μM ± SEM MCF7; for SI (selectivity index) MCF7: IC50 of RPE1 normal cell/IC50 of MCF7
COX-2 = target: T3, COX-2 (Homo sapiens, UniProt P35354); assay: biochemical; settings: for inhibition at 10 µM: 3 replicates, read-out: % Inhibition of COX-2 ± SEM; for SI (selectivity index, COX-2/COX-1): at 10 μM
T3 construct: purchased BioVision incorporated USA K548–100
T3 sequence (P35354 18-604): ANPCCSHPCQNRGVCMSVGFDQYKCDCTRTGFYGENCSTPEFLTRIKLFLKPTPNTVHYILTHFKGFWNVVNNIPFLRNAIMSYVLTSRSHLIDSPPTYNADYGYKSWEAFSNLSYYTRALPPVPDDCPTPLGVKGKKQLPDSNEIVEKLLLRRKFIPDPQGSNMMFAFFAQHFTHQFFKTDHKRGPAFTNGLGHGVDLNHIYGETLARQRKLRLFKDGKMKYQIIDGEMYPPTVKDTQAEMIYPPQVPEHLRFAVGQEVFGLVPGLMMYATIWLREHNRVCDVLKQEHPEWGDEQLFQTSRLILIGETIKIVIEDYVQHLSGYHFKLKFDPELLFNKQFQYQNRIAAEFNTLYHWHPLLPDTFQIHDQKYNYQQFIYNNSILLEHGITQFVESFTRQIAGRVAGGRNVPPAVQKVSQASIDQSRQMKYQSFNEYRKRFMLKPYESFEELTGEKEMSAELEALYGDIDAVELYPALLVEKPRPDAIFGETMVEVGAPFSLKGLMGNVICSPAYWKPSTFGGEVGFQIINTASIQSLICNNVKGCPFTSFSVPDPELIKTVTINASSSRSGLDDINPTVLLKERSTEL

TNF-α [4] = assay: TNF-α inhibitory properties (ELISA), HCT116 cell lysate; assay type: cell-based, human; settings: at 10 μM; for TNF-α pg/mL (± SEM) HCT116: control 95.74 ± 0.5
[5] = tested on: A549 (lung) cancer cell line; assay: 2D-monolayer antiproliferation (MTT) against A549; assay type: cell-based, human; settings: for IC50: Homo sapiens, MTT, 72 h incubation, A549 lung, read-out: IC50, μM ± SEM A549
TNF-α [6] = assay: TNF-α inhibitory properties (ELISA), PaCa2 cell lysate; assay type: cell-based, human; settings: for TNF-α pg/mL (± SEM) PaCa2: control 111.8 ± 2.0
VEGFR-2 [7] = target: T1, VEGFR-2; assay: cell-based; assay type: cell-based; settings: for inhibition at 10 µM: HCT-116, HCT116; for VEGFR-2 pg/mL ± SEM HCT116: at 10 μM, control 317.80 ± 3.5
[8] = tested on: HCT116 (colon) cancer cell line; assay: 2D-monolayer antiproliferation (MTT) against HCT116; assay type: cell-based, human; settings: for IC50: Homo sapiens, HCT-116; for SI (selectivity index) HCT116: IC50 of RPE1 normal cell/IC50 of HCT116
CAM blood vessel network = assay: Chick chorioallantoic membrane (CAM) anti-angiogenic assay; assay type: in vivo, chicken; settings: 20 μL of 660 μM, 3 days
Description: CAM assay is an established xenograft technique for investigating the angiogenic effect due to the high resemblance of the human vascularized epithelium basement membrane with that of the chorioallantoic layer containing mainly type IV collagen[84]–[86].
Fig. 10 Images of light microscopy for anti-angiogenic evaluation of the tested compounds using CAM assay. […] The glass slide was placed on the surface of the CAM blood vessel network and left in an incubator at 37 °C for 3 days. The CAM blood vessel network was carefully cut and imaged under a light microscope (40 × magnification).
Fertilized white chicken eggs were incubated in a 37 °C incubator with constant humidity. On day 8, a small squared window was opened allowing the detachment of the growing CAM and shell. The opening was covered with an elastic bandage. […] The CAM was then sealed with a bandage and placed back in the incubator. CAMs were examined daily until day 12 (3 days), the vascularized membranes were then cut around the glass slide and fixed in 5% formalin. Images were taken with an Evos microscope at 40x and 100x magnification^9. Main blood vessel in the microscopic images of controls and samples were quantified by imageJ and analyzed for significant differences (n = 4).

TNF-α [9] = assay: TNF-α inhibitory properties (ELISA), MCF7 cell lysate; assay type: cell-based, human; settings: at 10 μM; for TNF-α pg/mL (± SEM) MCF7: control 83.26 ± 1.1
[10] = tested on: PaCa2 (pancreatic) cancer cell line; assay: 2D-monolayer antiproliferation (MTT) against PaCa2; assay type: cell-based, human; settings: for 1/(observed property): 1/observed IC50 (μM), PaCa2; for IC50: Homo sapiens, PaCa-2, MTT, 72 h incubation, PaCa2 pancreatic, read-out: IC50, μM ± SEM PaCa2; for SI (selectivity index) PaCa2: IC50 of RPE1 normal cell/IC50 of PaCa2
VEGFR-2 [11] = target: T1, VEGFR-2; assay: cell-based; assay type: cell-based; settings: for inhibition at 10 µM: MCF7; for VEGFR-2 pg/mL ± SEM MCF7: at 10 μM, control 258.70 ± 2.3
[12] = MTT, 72 h incubation, HCT116 colon, read-out: IC50, μM ± SEM HCT116

SMILES	IC50 [1]	selectivity index (SI) [1]	inhibition at 10 µM (VEGFR-2 [2])	VEGFR-2 pg/mL ± SEM PaCa2 (VEGFR-2 [2])	inhibition at 10 µM (COX-1)	IC50 [3]	SI (selectivity index) MCF7 [3]	inhibition at 10 µM (COX-2)	SI (selectivity index, COX-2/COX-1) (COX-2)	TNF-α pg/mL (± SEM) HCT116 (TNF-α [4])	IC50 [5]	TNF-α pg/mL (± SEM) PaCa2 (TNF-α [6]; at 10 μM)	inhibition at 10 µM (VEGFR-2 [7])	VEGFR-2 pg/mL ± SEM HCT116 (VEGFR-2 [7])	IC50 [8, 12]	SI (selectivity index) HCT116 [8]	TNF-α % inhibition MCF7 (TNF-α [9])	TNF-α pg/mL (± SEM) MCF7 (TNF-α [9])	1/(observed property) [10]	IC50 [10]	also measured
CCOP(=O)(OCC)N1C/C(=C\c2ccc(Cl)cc2)C(=O)C2(C1)C(c1ccc(Cl)cc1)CN(C)C21C(=O)Nc2ccc(F)cc21 (stereo not shown) [Compound 17i, Diethyl (E)-(5′′-(4-chlorobenzylidene)-4′-(4-chlorophenyl)-5-fluoro-1′-methyl-2,4′′-dioxodispiro[indoline-3,2′-pyrrolidine-3′,3′′-piperidin]-1′′-yl)phosphonate]	> 50 µM	high selectivity index	86.9%	42.76 ± 0.7 pg/mL	46.2 ± 2.4%	4.81 ± 0.148 µM	> 10.4	49.7 ± 1.9%	1.09	28.56 ± 0.9 pg/mL	> 50 µM	22.8 ± 1.6 pg/mL	74.4%	81.40 ± 1.9 pg/mL	4.14 ± 0.042 µM	> 12.1	62.4%	31.27 ± 1.3 pg/mL	0.07435	13.5 ± 0.898 µM	TNF-α inhibition fold of the standard ibuprofen (TNF-α [6]; 10 μM): 1.9 fold; TNF-α inhibition fold of the standard indomethacin (TNF-α [6]; 10 μM): 2.4 fold; TNF-α % inhibition PaCa2 (TNF-α [6]; at 10 μM): 79.6%; IC50 ([8]; log of observed IC50 (μM), HCT116, read-out: Log(observed property) (converted)): 4.14 µM; % Inhibition of the blood vessels in CAM test (CAM blood vessel network): 52.3%; Diameter of blood vessel (μm ± SEM) (CAM blood vessel network; CAM test, control 459.7 ± 13.8): 219.3 ± 5.6 μm; SI (selectivity index) PaCa2 [10]: > 3.7; inhibition at 10 µM (VEGFR-2 [11]): 80.9%; VEGFR-2 pg/mL ± SEM MCF7 (VEGFR-2 [11]): 49.50 ± 0.3 pg/mL
CCOP(=O)(OCC)N1C/C(=C\c2ccc(F)cc2)C(=O)C2(C1)C(c1ccc(F)cc1)CN(C)C21C(=O)Nc2ccc(Cl)cc21 (stereo not shown) [Compound 17f, Diethyl (E)-[5-chloro-5′′-(4-fluorobenzylidene)-4′-(4-fluorophenyl)-1′-methyl-2,4′′-dioxodispiro[indoline-3,2′-pyrrolidine-3′,3′′-piperidin]-1′′-yl]phosphonate]	39.9 ± 1.16 µM	high selectivity index	91.6%	27.53 ± 1.1 pg/mL	57.6 ± 1.1%	5.29 ± 0.175 µM	7.5	60.8 ± 2.7%	1.01	85.46 ± 1.3 pg/mL	> 50 µM	109.8 ± 4.7 pg/mL	86.2%	43.70 ± 0.9 pg/mL	3.72 ± 0.099 µM	10.7	1.0%	82.45 ± 4.0 pg/mL	0.1904	5.25 ± 0.224 µM	TNF-α % inhibition HCT116 (TNF-α [4]): 10.7%; SI (selectivity index) A549 ([5]; IC50 of RPE1 normal cell/IC50 of A549): < 0.8; activity fold of sunitinib [10]: 3.2 fold; SI (selectivity index) PaCa2 [10]: 7.6; inhibition at 10 µM (VEGFR-2 [11]): 75.6%; VEGFR-2 pg/mL ± SEM MCF7 (VEGFR-2 [11]): 63.20 ± 0.9 pg/mL
